How the values were obtained:
[1] = system: Escherichia coli (E. coli) C600; assay: Minimum inhibitory concentration (MIC) assay in LB, 96-well, OD595; type: cell-based; conditions: 10^5 CFU/mL
Method: (§1) In exemplary procedures, Escherichia coli (E. coli) C600, Staphylococcus aureus (S. aureus) FRF1169, and multi-drug resistant strains E. coli 5327752, Klebsiella pneumoniae 5363271, and Providencia stuartii 5327311 were grown overnight at 37° C. under agitation (250 rpm) in Luria Bertani (LB, Difco) growth medium.
(§2) In exemplary procedures, the antimicrobial activity of the P(MAA-MBAA)-Cl nanoparticles was evaluated by determining the minimum inhibitory concentration (MIC) values for both E. coli and S. aureus. The MIC was defined as the lowest Cl concentration bound to the nanoparticles, or the NaOCl, at which no bacterial growth was visible following incubation with the respective bacteria. The stock solution of the P(MAA-MBAA)-Cl nanoparticles and NaOCl were each diluted in two-fold serial dilutions in a 96-well plate (Griener Bio-one) ranging from bound Cl concentrations of 10 to 0.08 mM (approximately corresponding to 0.8% P(MAA-MBAA)-Cl, w/v) in LB medium in a 96-well plate (Greiner Bio-one). Each well contained 10^5 colony-forming units (CFU)/mL of either E. coli or S. aureus, and bacteria were either treated with P(MAA-MBAA) nanoparticles or left untreated to serve as negative controls. The bacterial growth was monitored via absorbance measurements at OD595 utilizing a microplate reader (Synergy 2, BioTek instruments). All experiments were conducted in triplicate.

[2] = system: Staphylococcus aureus (S. aureus) FRF1169; assay: as above; type: cell-based; conditions: 10^5 CFU/mL
Method: as §1, §2

[3] = system: E. coli; assay: Bacterial killing / killing kinetics, viable cell count (CFU/mL); type: cell-based, Escherichia coli
Method: as §1
(§3) In exemplary procedures, overnight cultures of E. coli and S. aureus bacteria were each diluted in a fresh LB medium to obtain stock solutions with a working concentration of 10^5 CFU per mL. Next, E. coli and S. aureus bacteria were grown, […] with equivalent volumes of either NaOCl, P(MAA-MBAA) or P(MAA-MBAA)-Cl nanoparticles (0.2%, 0.75%, and 1% w/v) under continuous agitation (250 rpm). At various time points, 100 μL samples were taken from each tube and transferred into the wells of the first row in a 96-well plate that contained 20 μL of 0.1 N sodium thiosulfate. The latter was added to quench the remaining Cl on the P(MAA-MBAA)-Cl nanoparticles, thus halting the reaction. Serial dilutions were carried out, and the cells were spotted onto LB agar plates, followed by incubation at 37° C. for 20 hours. Cell growth was monitored and determined by viable cell count and expressed as CFU/mL.
(§4) Cultures of E. coli and S. aureus bacteria grown overnight were diluted in fresh twofold concentrated LB medium to obtain stock solutions with a final working concentration of 10^5 CFU/ml. Then, E. coli and S. aureus bacteria were grown with either P(MAA-MBAA)-Cl NPs or NaOCl under continuous agitation (250 rpm). Bacteria grown with distilled water or P(MAA-MBAA) NPs served as negative controls. At various time points, 100 μl samples were taken from each tube and transferred into the first row wells of a 96-well plate containing 20 μl of 0.1 N thiosulfate. The latter was added to quench the remaining chlorine on the P(MAA-MBAA)-Cl NPs and NaOCl, thus terminating the sterilization process. […] Cell growth was monitored and determined by a viable cell count.

[4] = system: S. aureus; assay: as above; type: cell-based, Staphylococcus aureus
Method: as §1, §3, §4

[5] = system: E. coli; assay: Consecutive bacterial loading cycles (hourly, 8 cycles); type: cell-based, Escherichia coli
Method: (§5) The cell density of E. coli and S. aureus grown overnight was normalized to 2*10^5 cells per milliliter in a twofold concentrated LB medium; then the bacteria were treated for 1 h at 37° C. under agitation (250 rpm) with equivalent volumes of either NaOCl or P(MAA-MBAA)-Cl NPs. Bacteria shaken with water served as a negative control. After 1 h of incubation, aliquots were collected and diluted serially tenfold before spotting onto LB agar plates. After an overnight incubation at 37° C. the colony forming units (CFU) were counted and used to determine cell survival. Immediately after each aliquot was removed, newly prepared bacteria were added for another hour to each of the tubes to achieve a final concentration of 10^5 CFU/ml.

[6] = system: S. aureus; assay: as above; type: cell-based, Staphylococcus aureus
Method: as §5

[7] = system: E. coli; assay: Stability in organic rich media (LB pre-incubation, then bacterial loading); type: cell-based, Escherichia coli
Method: (§6) 1 ml of either DDW, NaOCl or P(MAA-MBAA)-Cl NPs was mixed with 1 ml of twofold concentrated LB medium and incubated for 3 h, 5 h or 24 h. Then, E. coli or S. aureus were added to each of the solutions, reaching a final concentration of 10^5 CFU/ml and the mixture agitated for either 3 h or 24 h. At the indicated time points, samples were taken for cell viability determination and the solutions were reloaded with freshly prepared bacteria. The experiment was continued until the reagents were no longer capable of evincing toxic effects on the tested bacteria.

[8] = system: S. aureus; assay: as above; type: cell-based, Staphylococcus aureus
Method: as §6

[9] = Kinetics of oxidative chlorine release in LB medium (NaI quenching, 292/350 nm); type: physicochemical; conditions: for % chlorinated: 1 day in LB
Method: (§7) Equal volumes of NaOCl or P(MAA-MBAA)-Cl NPs were incubated with equivalent volumes of twofold concentrated LB medium. The precise concentration of the oxidative chlorine found on the two reagents was determined at different time intervals via quenching with sodium iodide followed by spectrophotometer (Amersham Bioschiences) measurements at wavelengths of 292 nm and 350 nm, as previously described.
as §7, with “nm.” for “nm, as previously described.”

[10] = system: E. coli; assay: Bacterial killing kinetics in the presence of antioxidants; type: cell-based, Escherichia coli; conditions: 10 mM antioxidant, 1 h pre-incubation
Method: (§8) Cultures of E. coli and S. aureus bacteria grown overnight were diluted in fresh twofold concentrated LB medium to obtain stock solutions with a final working concentration of 10^5 CFU/ml. […] Bacteria supplemented with distilled water or the various antioxidants served as negative controls. At various time points, 100 μl samples were taken from each tube and transferred into the first row wells of a 96-well plate containing 20 μl of 0.1 N thiosulfate. The latter was added to quench the remaining chlorine on the P(MAA-MBAA)-Cl NPs and NaOCl, thus terminating the sterilization process. Serial dilutions were carried out and the cells spotted onto LB agar plates, which were incubated at 37° C. for 20 h. Cell growth was monitored and determined by a viable cell count.

[11] = system: S. aureus; assay: as above; type: cell-based, Staphylococcus aureus; conditions: 10 mM antioxidant, 1 h pre-incubation
Method: as §8

[12] = ESR spin trapping (DMPO) of ROS; conditions: 10 mM antioxidant
Method: ROS production was detected using the ESR spin trapping technique coupled with a spin trap 5,5-Dimethyl-pyrroline N-oxide (DMPO, Sigma, St. Louis, Mo.). Typically, the aqueous suspensions of NPs were added to DMPO (0.01 M), in the presence of equivalent volumes of either twofold concentrated LB medium, or each of its components (Tryptone, yeast extract, NaCl) or water. […] The solution was drawn into a 0.8 mm ID capillary quartz tube sealed at both ends with a plastic Critoseal (Thermo Fisher Scientific Inc), which was placed into a quartz tube that in turn was placed into the EPR rectangular cavity (ER 4122SHQ). The measurements were taken using a X-band Elexsys E500 EPR spectrometer (Bruker, Karlsruhe, Germany) using the following parameters: microwave power, 20 mW; scan width, 100 G; resolution, 1024; Gain, 60; sweep time, 60 s; # scans, 2; modulation frequency, 100 kHz; modulation amplitude, 1 G. In order to compare the radical intensity, the double integration (DI) of the spin adduct signal was calculated, using the Xepr 2.6b.58 acquisition version.

[13] = 10^5 CFU/ml in LB, NPs versus NaOCl
[14] = pre-incubated for 1 week with LB

In the case of `OCl` [NaOCl, sodium hypochlorite], the “minimum inhibitory concentration (MIC)” value [1] is reported as 5.6 mM oxidative Cl, the “minimum inhibitory concentration (MIC)” value [2] is reported as 5.6 mM oxidative Cl and the bacterial killing ([3]; 8 mM oxidative chlorine) is reported as “Total kill”. The bacterial killing ([3]; 11 mM oxidative chlorine) was “Total kill”, the “time to eradication of bacteria” value [3, 13] was ≤ 2 min and the bacterial killing ([4]; 8 mM oxidative chlorine) was “Total kill”. For the same molecule, the bacterial killing ([4]; 11 mM oxidative chlorine) was “Total kill”, the “time to eradication of bacteria” value [4, 13] was ≤ 2 min and the “bacterial viability after overnight incubation following the eighth loading cycle” value [5] was “no viable E. coli bacteria”. For the same molecule, the “loading cycle from which no longer able to promote bacterial killing” value [5] was 4 cycle, the “bacterial viability after overnight incubation following the eighth loading cycle” value [6] was “able to overcome the growth inhibitory affect” and the “loading cycle from which no longer able to promote bacterial killing” value [6] was 2 cycle. For the same molecule, the “effect of pre-incubation with LB on bactericidal activity” value (“effect of pre-incubation with LB” for short) ([7]; 3 h pre-incubation) was “had no impact on their bactericidal activity”, the “effect of pre-incubation with LB” value ([7]; 5 h pre-incubation) was “growth inhibition” and the “time to complete killing” value ([7]; 5 h pre-incubation with LB) was 24 h. The “reduction of bacteria viability” value ([7]; 5 h pre-incubation with LB, 3 h time point) was ~4 logs, the “effect of pre-incubation with LB” value ([7]; 24 h pre-incubation) was “destroyed its antibacterial activity” and the “concentration required to kill bacteria” value [7, 14] was 0.36 M. The “killing at 0.18 M” value [7, 14] was “ineffective”, the “effect of pre-incubation with LB” value ([8]; 3 h pre-incubation) was “did compromise its bactericidal activity” and the “time to complete killing” value ([8]; 3 h pre-incubation with LB) was 24 h. For the same molecule, the “effect of pre-incubation with LB” value ([8]; 5 h pre-incubation) was “growth arrest”, the “effect of pre-incubation with LB” value ([8]; 24 h pre-incubation) was “destroyed its antibacterial activity” and the “concentration required to kill bacteria” value [8, 14] was 0.36 M. For the same molecule, the “killing at 0.18 M” value [8, 14] was “ineffective”, the “NaOCl molecules sequestered by organic substances” value ([9]; 10 minutes of incubation in LB) was ~50% and the “% chlorinated” value ([9]; measured at 292 nm) was 0.9%. For the same molecule, the “% chlorinated” value ([9]; measured at 350 nm) was 0.5%.

For `O=C1O[C@H]([C@@H](O)CO)C(O)=C1O` [AA, Ascorbic acid], the “effect of antioxidant pre-incubation on killing by the chlorinated NPs” value (“effect of antioxidant pre-incubation” for short) [10] was “abolished the killing properties of the NPs” and the “effect of antioxidant pre-incubation” value [11] was “abolished the killing properties of the NPs”.

For `CC(=O)N[C@@H](CS)C(=O)O` [NAC, N-acetyl cysteine], the “effect on formation of DMPO-OH by P(MAA-MBAA)-Cl NPs with LB” value [12] was “completely abrogated”, the “effect of antioxidant pre-incubation” value [10] was “abolished the killing properties of the NPs” and the “effect of antioxidant pre-incubation” value [11] was “abolished the killing properties of the NPs”.

From patent publication US10072161B2, “Polyamide nanoparticles and uses thereof” (Bar-Ilan University, priority 2014, dated 2018)
